Consider 28 molecules from patent publication US20070249670A1, “Glycogen Phosphorylase Inhibitor Compounds and Pharmaceutical Compositions Thereof” (SMITHKLINE BEECHAM CORPORATION, priority 2004, published 2007).

The target of the experiment is T1, human liver glycogen phosphorylase a (HLGPa) (Homo sapiens, UniProt P06737).
T1 construct: creating a full-length cDNA fused at the 5′ end to codons for methionine-glycine-alanine-histidine; 6xHis tag (leader Met-Gly-Ala-His6-Gly-Gly) (N); made in house; host or cells: E. coli (bacterial expression plasmid pTXK1007LTev)
T1 sequence (P06737 2-847 limits assumed): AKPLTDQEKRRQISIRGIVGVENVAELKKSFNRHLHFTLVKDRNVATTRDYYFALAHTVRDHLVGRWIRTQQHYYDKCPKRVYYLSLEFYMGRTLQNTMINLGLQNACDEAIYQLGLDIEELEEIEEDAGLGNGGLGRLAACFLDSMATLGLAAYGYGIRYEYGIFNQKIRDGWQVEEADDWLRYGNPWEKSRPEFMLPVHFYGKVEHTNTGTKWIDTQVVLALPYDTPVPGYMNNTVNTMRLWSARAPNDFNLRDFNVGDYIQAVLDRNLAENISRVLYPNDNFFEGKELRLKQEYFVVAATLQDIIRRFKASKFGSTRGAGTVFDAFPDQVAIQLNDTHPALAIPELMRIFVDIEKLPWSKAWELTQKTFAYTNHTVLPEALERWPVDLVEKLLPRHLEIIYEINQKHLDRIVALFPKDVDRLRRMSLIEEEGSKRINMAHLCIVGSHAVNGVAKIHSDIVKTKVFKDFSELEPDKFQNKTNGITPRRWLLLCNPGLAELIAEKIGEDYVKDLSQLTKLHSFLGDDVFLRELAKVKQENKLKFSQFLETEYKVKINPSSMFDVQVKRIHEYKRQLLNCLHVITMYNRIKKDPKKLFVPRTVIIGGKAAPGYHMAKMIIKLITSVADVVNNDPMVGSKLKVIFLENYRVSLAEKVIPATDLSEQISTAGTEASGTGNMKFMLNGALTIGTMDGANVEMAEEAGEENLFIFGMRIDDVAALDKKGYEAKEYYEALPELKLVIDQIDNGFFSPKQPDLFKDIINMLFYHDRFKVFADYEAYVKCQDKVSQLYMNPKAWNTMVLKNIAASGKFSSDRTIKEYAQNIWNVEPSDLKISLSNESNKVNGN
Nature of the experiment: Human liver glycogen phosphorylase a enzymatic activity assay (coupled, fluorescent resorufin readout, with and without 10 mM glucose). Format: biochemical.

Setting [1] is: human liver glycogen phosphorylase a enzymatic activity assay.
The mark [2] stands for this setting: human liver glycogen phosphorylase a, table does not say whether with or without 10 mM glucose.

In general, IC50 refers to the concentration that gives 50% inhibition. With `CSCC[C@H](NC(=O)c1cc2ccccc2cc1NC(=O)Nc1c(C)cccc1Cl)C(=O)O` [Example 60, N-[3-({[(2-chloro-6-methylphenyl)amino]carbonyl}amino)-2-naphthoyl]-L-methionine], 640 nM corresponded to half-maximal inhibition under setting [1] (IC50). As for `CC[C@H](C)[C@H](NC(=O)c1cc(F)c(F)cc1NC(=O)Nc1c(C)cccc1Cl)C(=O)O` [Example 70, N-[2-({[(2-chloro-6-methylphenyl)amino]carbonyl}amino)-4,5-difluorobenzoyl]-L-isoleucine], the half-inhibitory concentration (IC50) under setting [1] stood at 5970 nM.

`O=C(Nc1cc2ccccc2cc1C(=O)N[C@H](C(=O)O)C1CCCC1)Nc1c(Cl)cc(Cl)cc1Cl` [Example 343, (2S)-cyclopentyl({[3-({[(2,4,6-trichlorophenyl)amino]carbonyl}amino)-2-naphthalenyl]carbonyl}amino)ethanoic acid] came in with an IC50 under setting [2] of 130 nM.

As to `COC(=O)[C@@H](NC(=O)c1sc(-c2ccncc2)cc1NC(=O)Nc1c(Cl)cccc1Cl)C1CCCCC1` [Example 401, methyl(2S)-cyclohexyl({[3-({[(2,6-dichlorophenyl)amino]carbonyl}amino)-5-(4-pyridinyl)-2-thienyl]carbonyl}amino)ethanoate], the concentration for half-maximal inhibition (IC50) under setting [1] was 14900 nM.

For `COc1ccc(-c2cc(NC(=O)Nc3c(C)cc(C)cc3C)c(C(=O)N[C@H](C(=O)O)C(C)C)s2)cc1` [Example 440], under setting [1], the IC50 was 100 nM.

As for `Cc1cc(C)c(NC(=O)Nc2cc([N+](=O)[O-])ccc2C(=O)N[C@H](C(=O)O)C2CCCCC2)c(C)c1` [Example 195, (2S)-Cyclohexyl({[4-nitro-2-({[(2,4,6-trimethylphenyl)amino]carbonyl}amino)phenyl]carbonyl}amino)ethanoic acid], 550 nM corresponded to half-maximal inhibition under setting [1] (IC50).

As for `COc1ccc(-c2ccc(C(=O)N[C@H](C(=O)O)[C@@H](C)OC(C)(C)C)c(NC(=O)Nc3c(C)cc(C)cc3C)c2)cc1` [Example 225, O-(1,1-Dimethylethyl)-N-{[4′-(methyloxy)-3-({[(2,4,6-trimethylphenyl)amino]carbonyl}amino)-4-biphenylyl]carbonyl}-L-threonine], inhibition under setting [2] was half-maximal at 2 nM (IC50).

In the case of `Cc1ccccc1NC(=O)Nc1cc2ccccc2cc1C(=O)N[C@@H](Cc1cccs1)C(=O)O` [Example 96, N-{[3-({[(2-methylphenyl)amino]carbonyl}amino)-2-naphthalenyl]carbonyl}-3-(2-thienyl)-L-alanine], inhibition under setting [1] was half-maximal at 5070 nM (IC50). `Cc1cccc(C)c1NC(=O)Nc1cc(-c2cccs2)ccc1C(=O)N[C@H](C(=O)O)C1CCCCC1` [Example 183, (2S)-Cyclohexyl({[2-({[(2,6-dimethylphenyl)amino]carbonyl}amino)-4-(2-thienyl)phenyl]carbonyl}amino)ethanoic acid] yielded an IC50 under setting [1] of 100 nM.

Turning to `COc1ccc(-c2ccc(C(=O)N[C@H](C(=O)O)C(C)(C)C)c(NC(=O)Nc3c(C)cc(C)cc3C)c2)cc1` [Example 202, 3-Methyl-N-{[4′-(methyloxy)-3-({[(2,4,6-trimethylphenyl)amino]carbonyl}amino)-4-biphenylyl]carbonyl}-L-valine], the IC50 under setting [2] amounted to 140 nM.

As for `Cc1cc(C)c(NC(=O)Nc2cc3ccccc3cc2C(=O)NC2(C(=O)O)CCC(=NO)CC2)c(C)c1` (stereo not shown) [Example 296, 4-(hydroxyimino)-1-({[3-({[(2,4,6-trimethylphenyl)amino]carbonyl}amino)-2-naphthalenyl]carbonyl}amino)cyclohexanecarboxylic acid], the half-maximal inhibitory concentration (IC50) under setting [2] was found to be 540 nM.

`O=C(O)C[C@H](NC(=O)c1cc2ccccc2cc1NC(=O)Nc1ccccc1Cl)C(=O)O` [Example 151, N-{[3-({[(2-chlorophenyl)amino]carbonyl}amino)-2-naphthalenyl]carbonyl}-L-aspartic acid]: 1550 nM corresponded to half-maximal inhibition under setting [1] (IC50). `Cc1cccc(C)c1NC(=O)Nc1cc(Cl)c(Cl)cc1C(=O)N[C@H](C(=O)O)C1CCCCC1` [Example 180, (2S)-Cyclohexyl({[4,5-dichloro-2-({[(2,6-dimethylphenyl)amino]carbonyl}amino)phenyl]carbonyl}amino)ethanoic acid]: the midpoint of inhibition under setting [1], the IC50, lay at 94 nM. On the same count and under the same terms, under `Cc1ccccc1NC(=O)Nc1cc2ccccc2cc1C(=O)N[C@@H](CC(C)C)C(=O)O` [Example 16, N-[3-({[(2-methylphenyl)amino]carbonyl}amino)-2-naphthoyl]-L-leucine] stands 5100 nM; under `COc1ccc(-c2nc(C(=O)NC3(C(=O)O)CCCCC3)c(NC(=O)Nc3c(C)cc(C)cc3C)s2)cc1` [Example 489, 1-({[2-[4-(Methyloxy)phenyl]-5-({[(2,4,6-trimethylphenyl)amino]carbonyl}amino)-1,3-thiazol-4-yl]carbonyl}amino)cyclohexanecarboxylic acid], 34 nM; under `N#Cc1ccc(-c2cc(NC(=O)Nc3c(Cl)cccc3Cl)c(C(=O)N[C@H](C(=O)O)C3CCCCC3)s2)cc1` [Example 407, (2S)-({[5-(4-cyanophenyl)-3-({[(2,6-dichlorophenyl)amino]carbonyl}amino)-2-thienyl]carbonyl}amino)(cyclohexyl)ethanoic acid], 370 nM. Take `C[C@](NC(=O)c1cc2ccccc2cc1NC(=O)Nc1c(Cl)cc(Cl)cc1Cl)(C(=O)O)C1CCCCC1` [Example 456, 2-cyclohexyl-N-{[3-({[(2,4,6-trichlorophenyl)amino]carbonyl}amino)-2-naphthalenyl]carbonyl}-L-alanine]: half-maximal inhibition under setting [1] (IC50) was put at 230 nM. `CCc1cccc(CC)c1NC(=O)Nc1ccccc1C(=O)N[C@@H](CC(=O)O)C(=O)O` [Example 83, N-[2-({[(2,6-diethylphenyl)amino]carbonyl}amino)benzoyl]-L-aspartic acid] displayed an IC50 under setting [1] of 34100 nM.

Turning to `O=C(O)CN(Cc1ccccc1)C(=O)c1cc2ccccc2cc1NC(=O)Nc1c(Cl)cc(Cl)cc1Cl` [Example 332, N-(phenylmethyl)-N-{[3-({[(2,4,6-trichlorophenyl)amino]carbonyl}amino)-2-naphthalenyl]carbonyl}glycine], half-maximal inhibition under setting [2] (IC50) was put at 4350 nM. As for `O=C(Nc1cc(-c2cccnc2)sc1C(=O)N[C@H](C(=O)O)C1CCCCC1)Nc1c(Cl)cccc1Cl` [Example 405], under setting [1], the 50% inhibitory concentration (IC50) turned out to be 230 nM. `Cc1cc(CC2CC2)cc(C)c1NC(=O)Nc1cc(-c2ccc(F)c(F)c2)ccc1C(=O)N[C@H](C(=O)O)[C@@H](C)OC(C)(C)C` [Example 483, N-({3-[({[4-(cyclopropylmethyl)-2,6-dimethylphenyl]amino}carbonyl)amino]-3′,4′-difluoro-4-biphenylyl}carbonyl)-O-(1,1-dimethylethyl)-L-threonine]: the IC50 under setting [1] was found to be 1 nM. For `Cc1ccccc1NC(=O)Nc1cc2ccccc2cc1C(=O)N[C@@H](CC1CCCCC1)C(=O)O` [Example 144, 3-cyclohexyl-N-{[3-({[(2-methylphenyl)amino]carbonyl}amino)-2-naphthalenyl]carbonyl}-L-alanine], 16800 nM corresponded to half-maximal inhibition under setting [1] (IC50). The same measure, in the same setting: the same measure for `Cc1cccc(Cl)c1NC(=O)Nc1cc2ccccc2cc1C(=O)N[C@@H](CC(C)C)C(=O)O` [Example 39, N-[3-({[(2-chloro-6-methylphenyl)amino]carbonyl}amino)-2-naphthoyl]-L-leucine]: 600 nM. For `O=C(Nc1cc2ccccc2cc1C(=O)NC1(C(=O)O)CCSCC1)Nc1c(Cl)cc(Cl)cc1Cl` [Example 284, 4-({[3-({[(2,4,6-Trichlorophenyl)amino]carbonyl}amino)-2-naphthalenyl]carbonyl}amino)tetrahydro-2H-thiopyran-4-carboxylic acid], under setting [2], the IC50 stood at 2310 nM.

Regarding `Cc1cc(C)c(NC(=O)Nc2cc(-c3ccc(OC(F)(F)F)cc3)sc2C(=O)O)c(C)c1` [Example 436, 5-{4-[(trifluoromethyl)oxy]phenyl}-3-({[(2,4,6-trimethylphenyl)amino]carbonyl}amino)-2-thiophenecarboxylic acid], the IC50 under setting [1] worked out at 1570 nM.

Under setting [2], `Cc1cc(C)c(NC(=O)Nc2cc(Cl)cnc2C(=O)N[C@H](C(=O)O)C2CCCCC2)c(C)c1` [Example 317, (2S)-({[5-chloro-3-({[(2,4,6-trimethylphenyl)amino]carbonyl}amino)-2-pyridinyl]carbonyl}amino)(cyclohexyl)ethanoic acid] gave a half-inhibitory concentration (IC50) of 920 nM.

The molecule `Cc1cc(C)c(NC(=O)Nc2cc3ccccc3cc2C(=O)NC(C(=O)O)c2ccccc2)c(C)c1` (stereo not shown) [Example 103, Phenyl({[3-({[(2,4,6-trimethylphenyl)amino]carbonyl}amino)-2-naphthalenyl]carbonyl}amino)acetic acid] came in with an IC50 under setting [1] of 60 nM. As to `Cc1cc(C)c(NC(=O)Nc2cc3ccccc3cc2C(=O)N[C@@H](COCc2ccccc2)C(=O)O)c(C)c1` [Example 509, O-(Phenylmethyl)-N-{[3-({[(2,4,6-trimethylphenyl)amino]carbonyl}amino)-2-naphthalenyl]carbonyl}-L-serine], the IC50 under setting [1] amounted to 28 nM.
